Test results taken from US12655116B2, “Substituted isophthalic acid diamides” (Bayer Aktiengesellschaft, priority 2020, dated 2026).

How the values were obtained:
[1] = test system: ABUTH; test: Pre-emergence herbicidal action against ABUTH; assay type: in vivo, Abutilon theophrasti; settings: Abutilon theophrasti, 504 h; for pest or weed control at 80 g/ha: scored visually after 3 weeks vs untreated controls (100% = plants have died, 0% = like control plants); for pest or weed control at 20 g/ha: dosage 20 g/ha, scored visually after 3 weeks vs untreated controls, 100% = plants have died, 0% = like control plants, read-out: Pre-emergence action against ABUTH (herbicidal activity in percent)
Method in brief: (§1)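 Visual rating at 3 weeks vs untreated pots; 0–100% scale, 100% = plants died. Treatment: aqueous WP/EC spray onto covering soil, 600–800 l/ha, 0.2% wetter, seeds in sandy loam.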

[2] = test system: ALOMY; test: Pre-emergence herbicidal action against ALOMY; assay type: in vivo, Alopecurus myosuroides; settings: Alopecurus myosuroides, 504 h, pre-emergence; for pest or weed control at 80 g/ha: scored visually after 3 weeks vs untreated controls (100% = plants have died, 0% = like control plants); for pest or weed control at 20 g/ha: scored visually after 3 weeks, 100% = plants have died, 0% = like control plants
Method in brief: as §1

[3] = test system: AMARE; test: Pre-emergence herbicidal action against AMARE; assay type: in vivo, Amaranthus retroflexus; settings: Amaranthus retroflexus, 504 h, scored visually after 3 weeks vs untreated controls, 100% = plants have died, 0% = like control plants
Method in brief: as §1

[4] = test system: ECHCG; test: Pre-emergence herbicidal action against ECHCG; assay type: in vivo, Echinochloa crus-galli; settings: Echinochloa crus-galli, 504 h
Method in brief: as §1

[5] = test system: LOLRI; test: Pre-emergence herbicidal action against LOLRI; assay type: in vivo, Lolium rigidum; settings: Lolium rigidum, 504 h, 80 g/ha
Method in brief: as §1

[6] = test system: MATIN; test: Pre-emergence herbicidal action against MATIN; assay type: in vivo, Matricaria inodora; settings: Tripleurospermum inodorum, 504 h; for pest or weed control at 20 g/ha: dosage 20 g/ha; for pest or weed control at 80 g/ha: dosage 80 g/ha
Method in brief: as §1

[7] = test system: PHBPU; test: Pre-emergence herbicidal action against PHBPU; assay type: in vivo, Pharbitis purpurea; settings: Ipomoea purpurea, 504 h, dosage 80 g/ha
Method in brief: as §1

[8] = test system: POLCO; test: Pre-emergence herbicidal action against POLCO; assay type: in vivo, Polygonum convolvulus; settings: Fallopia convolvulus, 504 h; for pest or weed control at 80 g/ha: dosage 80 g/ha
Method in brief: as §1

[9] = test system: SETVI; test: Pre-emergence herbicidal action against SETVI; assay type: in vivo, Setaria viridis; settings: Setaria viridis, 504 h; for pest or weed control at 80 g/ha: dosage 80 g/ha
Method in brief: as §1

[10] = test system: VERPE; test: Pre-emergence herbicidal action against VERPE; assay type: in vivo, Veronica persica; settings: Veronica persica, 504 h; for pest or weed control at 80 g/ha: dosage 80 g/ha
Method in brief: as §1

[11] = test system: VIOTR; test: Pre-emergence herbicidal action against VIOTR; assay type: in vivo, Viola tricolor; settings: Viola tricolor, 504 h; for pest or weed control at 80 g/ha: dosage 80 g/ha
Method in brief: as §1

[12] = test system: DIGSA; test: Pre-emergence herbicidal action against DIGSA; assay type: in vivo, Digitaria sanguinalis; settings: Digitaria sanguinalis, 504 h
Method in brief: as §1

[13] = test system: ABUTH; test: Post-emergence herbicidal action against ABUTH; assay type: in vivo, Abutilon theophrasti; settings: Abutilon theophrasti, 504 h, visual assessment about 3 weeks after treatment vs untreated controls; for pest or weed control at 5 g/ha: dosage 5 g/ha; for pest or weed control at 20 g/ha: dosage 20 g/ha
Method in brief: (§2)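 Greenhouse pot plants in sandy loam were sprayed at the one-leaf stage, 2 to 3 weeks after sowing, with WP or EC formulations as aqueous suspension or emulsion (600 to 800 l/ha water, 0.2% wetting agent). About 3 weeks later, damage was scored visually against untreated controls as % action (100% = dead, 0% = like control).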

[14] = test system: ALOMY; test: Post-emergence herbicidal action against ALOMY; assay type: in vivo, Alopecurus myosuroides; settings: Alopecurus myosuroides, 504 h, visual assessment about 3 weeks after treatment vs untreated controls; for pest or weed control at 20 g/ha: dosage 20 g/ha
Method in brief: as §2

[15] = test system: AMARE; test: Post-emergence herbicidal action against AMARE; assay type: in vivo, Amaranthus retroflexus; settings: Amaranthus retroflexus, 504 h, 20 g/ha, visual assessment about 3 weeks after treatment, 100% = plants have died, 0% = like control plants
Method in brief: as §2

[16] = test system: ECHCG; test: Post-emergence herbicidal action against ECHCG; assay type: in vivo, Echinochloa crus-galli; settings: Echinochloa crus-galli, 504 h; for pest or weed control at 20 g/ha: dosage 20 g/ha
Method in brief: as §2

[17] = test system: MATIN; test: Post-emergence herbicidal action against MATIN; assay type: in vivo, Matricaria inodora; settings: Tripleurospermum inodorum, 504 h; for pest or weed control at 20 g/ha: dosage 20 g/ha
Method in brief: as §2

[18] = test system: VERPE; test: Post-emergence herbicidal action against VERPE; assay type: in vivo, Veronica persica; settings: Veronica persica, 504 h, 20 g/ha
Method in brief: as §2

[19] = test system: VIOTR; test: Post-emergence herbicidal action against VIOTR; assay type: in vivo, Viola tricolor; settings: Viola tricolor, 504 h, 20 g/ha
Method in brief: as §2

[20] = test system: AVEFA; test: Pre-emergence herbicidal action against AVEFA; assay type: in vivo, Avena fatua; settings: Avena fatua, 504 h; 80 g/ha, pre-emergence
Method in brief: as §1

[21] = test system: PHBPU; test: Post-emergence herbicidal action against PHBPU; assay type: in vivo, Pharbitis purpurea; settings: Ipomoea purpurea, 504 h, dosage 20 g/ha
Method in brief: as §2

[22] = test system: SETVI; test: Post-emergence herbicidal action against SETVI; assay type: in vivo, Setaria viridis; settings: Setaria viridis, 504 h
Method in brief: as §2

Which pest or weed control at 80 g/ha [1] does the source give for `CCCNC(=O)c1c(C(F)(F)F)ccc(C(=O)Nc2nnnn2C)c1C` [Example 1-32] here?
The pest or weed control at 80 g/ha was 100%.

What about the pest or weed control at 20 g/ha [1] of the same compound?
Its pest or weed control at 20 g/ha is 100%.

And the pest or weed control at 80 g/ha [2]?
The pest or weed control at 80 g/ha was 100%.

What about the pest or weed control at 20 g/ha [2] of the same compound?
Its pest or weed control at 20 g/ha is 80%.

What about the pest or weed control at 20 g/ha [3] of the same compound?
The pest or weed control at 20 g/ha was 100%.

And the pest or weed control at 80 g/ha [3]?
Its pest or weed control at 80 g/ha is 100%.

And the pest or weed control at 20 g/ha ([4]; 20 g/ha)?
The pest or weed control at 20 g/ha was 80%.

And the pest or weed control at 80 g/ha [4]?
The pest or weed control at 80 g/ha was 100%.

What about the pest or weed control at 80 g/ha [5] of the same compound?
The pest or weed control at 80 g/ha was 90%.

What about the pest or weed control at 20 g/ha [6] of the same compound?
Its pest or weed control at 20 g/ha is 100%.

And the pest or weed control at 80 g/ha [6]?
The pest or weed control at 80 g/ha was 100%.

What about the pest or weed control at 80 g/ha [7] of the same compound?
Its pest or weed control at 80 g/ha is 80%.

What about the pest or weed control at 80 g/ha [8] of the same compound?
Its pest or weed control at 80 g/ha is 100%.

And the pest or weed control at 80 g/ha [9]?
Its pest or weed control at 80 g/ha is 100%.

What about the pest or weed control at 20 g/ha ([10]; dosage 20 g/ha) of the same compound?
Its pest or weed control at 20 g/ha is 80%.

What about the pest or weed control at 80 g/ha [10] of the same compound?
The pest or weed control at 80 g/ha was 100%.

What about the pest or weed control at 80 g/ha [11] of the same compound?
The pest or weed control at 80 g/ha was 100%.

And the pest or weed control at 20 g/ha ([12]; dosage 20 g/ha)?
Its pest or weed control at 20 g/ha is 100%.

And the pest or weed control at 80 g/ha ([12]; dosage 80 g/ha)?
The pest or weed control at 80 g/ha was 100%.

And the pest or weed control at 5 g/ha [13]?
The pest or weed control at 5 g/ha was 90%.

What about the pest or weed control at 20 g/ha [13] of the same compound?
The pest or weed control at 20 g/ha was 90%.

And the pest or weed control at 5 g/ha ([14]; dosage 5 g/ha)?
Its pest or weed control at 5 g/ha is 80%.

What about the pest or weed control at 20 g/ha [14] of the same compound?
Its pest or weed control at 20 g/ha is 90%.

And the pest or weed control at 20 g/ha [15]?
The pest or weed control at 20 g/ha was 90%.

What about the pest or weed control at 20 g/ha [16] of the same compound?
Its pest or weed control at 20 g/ha is 90%.

What about the pest or weed control at 5 g/ha ([17]; dosage 5 g/ha) of the same compound?
Its pest or weed control at 5 g/ha is 80%.

And the pest or weed control at 20 g/ha [17]?
The pest or weed control at 20 g/ha was 90%.

What about the pest or weed control at 20 g/ha [18] of the same compound?
The pest or weed control at 20 g/ha was 90%.

What about the pest or weed control at 20 g/ha [19] of the same compound?
The pest or weed control at 20 g/ha was 80%.

With `CCNC(=O)c1c(C(F)(F)F)ccc(C(=O)Nc2nnnn2C)c1CC` [Example 1-272] as the compound, how does the pest or weed control at 80 g/ha [1] read?
The pest or weed control at 80 g/ha was 100%.

And the pest or weed control at 20 g/ha [1]?
Its pest or weed control at 20 g/ha is 90%.

And the pest or weed control at 80 g/ha [2]?
The pest or weed control at 80 g/ha was 100%.

And the pest or weed control at 20 g/ha [2]?
The pest or weed control at 20 g/ha was 90%.

And the pest or weed control at 20 g/ha [3]?
The pest or weed control at 20 g/ha was 100%.

What about the pest or weed control at 80 g/ha [3] of the same compound?
The pest or weed control at 80 g/ha was 100%.

What about the pest or weed control at 80 g/ha [20] of the same compound?
The pest or weed control at 80 g/ha was 90%.

What about the pest or weed control at 80 g/ha [4] of the same compound?
Its pest or weed control at 80 g/ha is 100%.

What about the pest or weed control at 80 g/ha [5] of the same compound?
Its pest or weed control at 80 g/ha is 80%.

And the pest or weed control at 20 g/ha [6]?
Its pest or weed control at 20 g/ha is 90%.

And the pest or weed control at 80 g/ha [6]?
Its pest or weed control at 80 g/ha is 100%.

And the pest or weed control at 80 g/ha [7]?
The pest or weed control at 80 g/ha was 80%.

What about the pest or weed control at 20 g/ha ([8]; dosage 20 g/ha) of the same compound?
Its pest or weed control at 20 g/ha is 80%.

And the pest or weed control at 80 g/ha [8]?
The pest or weed control at 80 g/ha was 90%.

What about the pest or weed control at 20 g/ha ([9]; dosage 20 g/ha) of the same compound?
Its pest or weed control at 20 g/ha is 80%.

What about the pest or weed control at 80 g/ha [9] of the same compound?
Its pest or weed control at 80 g/ha is 100%.

And the pest or weed control at 80 g/ha [10]?
Its pest or weed control at 80 g/ha is 90%.

What about the pest or weed control at 20 g/ha ([11]; dosage 20 g/ha) of the same compound?
Its pest or weed control at 20 g/ha is 90%.

What about the pest or weed control at 80 g/ha [11] of the same compound?
Its pest or weed control at 80 g/ha is 100%.

What about the pest or weed control at 5 g/ha [13] of the same compound?
The pest or weed control at 5 g/ha was 80%.

What about the pest or weed control at 20 g/ha [13] of the same compound?
Its pest or weed control at 20 g/ha is 90%.

What about the pest or weed control at 20 g/ha [14] of the same compound?
Its pest or weed control at 20 g/ha is 90%.

And the pest or weed control at 20 g/ha [15]?
Its pest or weed control at 20 g/ha is 100%.

And the pest or weed control at 5 g/ha ([16]; dosage 5 g/ha)?
Its pest or weed control at 5 g/ha is 80%.

What about the pest or weed control at 20 g/ha [16] of the same compound?
Its pest or weed control at 20 g/ha is 90%.

And the pest or weed control at 20 g/ha [17]?
The pest or weed control at 20 g/ha was 90%.

What about the pest or weed control at 20 g/ha [21] of the same compound?
Its pest or weed control at 20 g/ha is 90%.

What about the pest or weed control at 5 g/ha ([22]; dosage 5 g/ha) of the same compound?
Its pest or weed control at 5 g/ha is 90%.

And the pest or weed control at 20 g/ha ([22]; dosage 20 g/ha)?
The pest or weed control at 20 g/ha was 90%.

What about the pest or weed control at 20 g/ha [18] of the same compound?
Its pest or weed control at 20 g/ha is 80%.

What about the pest or weed control at 20 g/ha [19] of the same compound?
The pest or weed control at 20 g/ha was 90%.
